In the supplement of paper PMC10331698:
± gives the standard deviation of the averaged measurements.

Key:
Assay in all cases: level (log10 ratio to DMSO vehicle control); higher = higher biomarker level / cell amount than vehicle control
Settings in all cases: in DMSO
[1] = compound: FC(F)C(F)(F)COCC1CO1 [((2,2,3,3-Tetrafluoropropoxy)methyl)oxirane]
Procedure: (§1)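 BioMAP Diversity Plus panel of 12 human primary cell co-culture systems (3C, 4H, LPS, SAg, BT, BF4T, BE3C, CASM3C, HDF3CGF, KF3CT, MyoF, Mphg). Compounds were added 1 h before stimulation and left for 24 h (MyoF 48 h; BT 72 h for soluble read-outs or 6 d for IgG). Biomarkers were read by ELISA, cytotoxicity by SRB, PBMC viability and proliferation by Alamar Blue. Each well value was divided by the mean of 8 DMSO control wells on the same plate and log10 transformed; duplicate blinded samples were tested at 4 concentrations.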

[2] = compound: FC(F)(F)C(F)(C(F)(F)F)C(F)(F)C(F)(F)CC1CO1 [3-(Perfluoro-3-methylbutyl)-1,2-propenoxide]
Procedure: as §1

Perfluoro-1-iodohexane = compound: FC(F)(F)C(F)(F)C(F)(F)C(F)(F)C(F)(F)C(F)(F)I [Perfluoro-1-iodohexane]
Procedure: as §1

[3] = compound: O=S(=O)(O)C(F)(F)C(F)(F)C(F)(F)C(F)(F)C(F)(F)C(F)(F)F [Perfluorohexanesulfonic acid]
Procedure: as §1

[4] = compound: OCC(F)(F)OC(F)(F)C(F)(F)OC(F)(F)CO [1H,1H,8H,8H-Perfluoro-3,6-dioxaoctane-1,8-diol]
Procedure: as §1

Perfluorobutanoic acid = compound: O=C(O)C(F)(F)C(F)(F)C(F)(F)F [Perfluorobutanoic acid]
Procedure: as §1

[5] = compound: O=C(O)C(F)(F)C(F)(F)OC(F)(F)F [Perfluoro-3-methoxypropanoic acid]
Procedure: as §1

Test System	level (log10) ([1]; 6700 nM)	level (log10) ([1]; 20000 nM)	level (log10) ([1]; 60000 nM)	level (log10) ([2]; 6700 nM)	level (log10) ([2]; 20000 nM)	level (log10) (Perfluoro-1-iodohexane; 6700 nM)	level (log10) (Perfluoro-1-iodohexane; 20000 nM)	level (log10) (Perfluoro-1-iodohexane; 60000 nM)	level (log10) ([3]; 6700 nM)	level (log10) ([3]; 20000 nM)	level (log10) ([3]; 60000 nM)	level (log10) ([4]; 6700 nM)	level (log10) ([4]; 20000 nM)	level (log10) ([4]; 60000 nM)	level (log10) (Perfluorobutanoic acid; 6700 nM)	level (log10) (Perfluorobutanoic acid; 20000 nM)	level (log10) (Perfluorobutanoic acid; 60000 nM)	level (log10) ([5]; 6700 nM)	level (log10) ([5]; 20000 nM)	level (log10) ([5]; 60000 nM)
MyoF:SRB	-0.003	-0.007 ± 0.0042	-0.0035 ± 0.0035	0.008 ± 0.0085	0.005 ± 0.0042	-0.0405 ± 0.05	-0.263 ± 0.16	-0.712 ± 0.15	0.003 ± 0.0057	-0.0045 ± 0.0035	-0.0165 ± 0.021	-0.0045 ± 0.00071	-0.001 ± 0.0014	-0.017 ± 0.013	0.0005 ± 0.0035	-0.001 ± 0.0085	-0.0125 ± 0.0035	-0.005 ± 0.0042	-0.004 ± 0.0028	0 ± 0.0014
MyoF:bFGF	0.012 ± 0.0057	0.0095 ± 0.0035	0.012 ± 0.011	0.006 ± 0.0099	-0.001 ± 0.0042	-0.0085 ± 0.0064	-0.002 ± 0.0042	0.0235 ± 0.036	0.0035 ± 0.005	0.005 ± 0.0085	0.004 ± 0.014	-0.001 ± 0.016	0.0075 ± 0.011	0.004 ± 0.0057	0.0025 ± 0.0078	0.0095 ± 0.0078	0.0155 ± 0.0035	0.002 ± 0.018	-0.004 ± 0.037	0.0045 ± 0.025
KF3CT:PAI-I	0.004	-0.0085 ± 0.005	-0.0015 ± 0.012	0 ± 0.035	-0.011 ± 0.037	0.001 ± 0.0014	-0.0005 ± 0.005	0.0055 ± 0.005	-0.0105 ± 0.012	-0.0325 ± 0.00071	-0.0435 ± 0.0021	-0.015 ± 0.0028	-0.0095 ± 0.0078	-0.002 ± 0.0099	-0.0055 ± 0.0078	-0.019 ± 0.0014	0	-0.0035 ± 0.0021	-0.0045 ± 0.0035	-0.0195 ± 0.026
MyoF:Collagen I	0.01 ± 0.0014	-0.005 ± 0.016	0.0155 ± 0.023	0 ± 0.0099	-0.017 ± 0.017	-0.0295 ± 0.019	-0.062 ± 0.04	-0.246 ± 0.094	-0.0035 ± 0.023	0.008 ± 0.025	0.019 ± 0.028	0.0045 ± 0.021	-0.0165 ± 0.052	-0.015 ± 0.04	0.0075 ± 0.011	0.005 ± 0.042	0.0025 ± 0.012	0.006 ± 0.02	0 ± 0.016	0.0165 ± 0.013
CASM3C:SRB	-0.0005 ± 0.015	-0.003 ± 0.0042	0.0015 ± 0.00071	0.004 ± 0.0042	-0.001 ± 0.014	0.0035 ± 0.013	0.0015 ± 0.0021	-0.0015 ± 0.016	-0.0045 ± 0.0021	-0.0015 ± 0.012	-0.0025 ± 0.016	-0.008 ± 0.0014	-0.003 ± 0.0042	-0.009 ± 0.0057	0.0005 ± 0.0064	-0.0055 ± 0.011	0.002 ± 0.0042	0.0025 ± 0.005	-0.0045 ± 0.005	0.0075 ± 0.015
BE3C:SRB	-0.0015 ± 0.005	-0.001 ± 0.0014	0.0085 ± 0.023	-0.0005 ± 0.00071	0.0015 ± 0.0021	-0.0125 ± 0.005	0.001 ± 0.017	0 ± 0.013	-0.0035 ± 0.022	-0.013 ± 0.0085	-0.017 ± 0.011	-0.005 ± 0.0085	-0.0015 ± 0.0064	-0.0045 ± 0.012	-0.009 ± 0.011	0 ± 0.0042	-0.0005 ± 0.011	-0.001	-0.004 ± 0.0014	0.004 ± 0.018
CASM3C:Proliferation	-0.0215 ± 0.011	-0.001 ± 0.014	0.0145 ± 0.032	-0.001 ± 0.047	0.0195 ± 0.071	0.023 ± 0.0071	-0.02 ± 0.013	-0.021 ± 0.067	0.014 ± 0.014	0.002 ± 0.014	0.0185 ± 0.011	-0.0225 ± 0.0021	-0.0045 ± 0.028	0.0065 ± 0.026	0.01 ± 0.0099	-0.0015 ± 0.025	-0.007 ± 0.017	-0.024 ± 0.023	-0.0095 ± 0.029	-0.0075 ± 0.025
HDF3CGF:TIMP-2	-0.018 ± 0.0057	-0.008 ± 0.0071	-0.0275 ± 0.0078	-0.043 ± 0.081	-0.0475 ± 0.1	0.017 ± 0.038	0.0295 ± 0.018	0.031 ± 0.045	-0.0055 ± 0.015	0.0095 ± 0.0035	-0.02 ± 0.0099	-0.002 ± 0.016	0.002 ± 0.0071	-0.011 ± 0.021	-0.0015 ± 0.0035	-0.0055 ± 0.015	-0.0115 ± 0.036	-0.029 ± 0.047	0.001 ± 0.0099	-0.01 ± 0.023
HDF3CGF:CXCL10/IP-10	-0.0085 ± 0.032	-0.033 ± 0.0057	-0.0175 ± 0.023	0.003 ± 0.021	-0.034 ± 0.075	-0.033 ± 0.014	-0.0435 ± 0.0035	-0.114 ± 0.076	0.0035 ± 0.0064	0.0015 ± 0.021	-0.0135 ± 0.012	0.004 ± 0.0014	-0.0085 ± 0.00071	-0.011 ± 0.021	-0.002 ± 0.0057	0.0035 ± 0.005	-0.0025 ± 0.013	0.001 ± 0.011	0.0055 ± 0.011	-0.0135 ± 0.021
BE3C:tPA	-0.006 ± 0.031	-0.015 ± 0.024	-0.0165 ± 0.00071	-0.0215 ± 0.04	-0.037 ± 0.033	-0.008 ± 0.028	-0.008 ± 0.023	0.0125 ± 0.028	-0.0105 ± 0.0064	0.0015 ± 0.0035	0.012 ± 0.0014	-0.014 ± 0.021	-0.0255 ± 0.03	-0.0225 ± 0.00071	-0.025 ± 0.025	-0.025 ± 0.04	-0.037 ± 0.0099	-0.007 ± 0.04	-0.0075 ± 0.019	0.004 ± 0.0071
KF3CT:CXCL8/IL-8	-0.024 ± 0.02	-0.0035 ± 0.0092	-0.001 ± 0.0071	-0.0155 ± 0.0078	0.0035 ± 0.013	-0.0125 ± 0.016	0.003 ± 0.0014	0 ± 0.011	0.015 ± 0.02	0.03 ± 0.0057	0.038 ± 0.0057	0.011 ± 0.021	0.0125 ± 0.028	0.016 ± 0.018	0.012 ± 0.013	-0.009 ± 0.0085	0.0045 ± 0.013	0.007 ± 0.016	0.028 ± 0.031	0.017 ± 0.02
lMphg:M-CSF	-0.0155 ± 0.013	0 ± 0.024	-0.0265 ± 0.015	-0.0215 ± 0.021	-0.005 ± 0.02	-0.0095 ± 0.0035	-0.032 ± 0.016	0.0085 ± 0.026	-0.0105 ± 0.033	0.0005 ± 0.011	0.0135 ± 0.022	-0.011 ± 0.0071	-0.004 ± 0.0085	-0.01 ± 0.0028	-0.023 ± 0.024	-0.0005 ± 0.011	0.024 ± 0.031	-0.0075 ± 0.012	-0.025 ± 0.0071	-0.0025 ± 0.037
CASM3C:Serum Amyloid A	-0.004 ± 0.011	0.0215 ± 0.0035	-0.0235 ± 0.0092	-0.0235 ± 0.012	0.0035 ± 0.047	0.0035 ± 0.042	0.008 ± 0.035	0.007 ± 0.025	-0.0215 ± 0.057	-0.0085 ± 0.015	0.007 ± 0.021	-0.0235 ± 0.044	-0.0195 ± 0.043	-0.036 ± 0.025	-0.021	0.0225 ± 0.016	-0.009 ± 0.041	-0.0155 ± 0.0064	-0.017 ± 0.0099	0.008 ± 0.069
HDF3CGF:TIMP-1	0.0075 ± 0.023	0.002 ± 0.011	0 ± 0.055	-0.012 ± 0.035	-0.035 ± 0.033	-0.014 ± 0.021	-0.017 ± 0.025	-0.0385 ± 0.016	0.0145 ± 0.016	0.049 ± 0.021	0.094 ± 0.038	-0.007 ± 0.025	-0.0015 ± 0.016	0.0065 ± 0.023	-0.0165 ± 0.00071	-0.0085 ± 0.033	0.0085 ± 0.013	-0.0285 ± 0.026	0.0185 ± 0.005	0.036 ± 0.071
KF3CT:CD54/ICAM-1	-0.0065 ± 0.015	-0.012 ± 0.0085	-0.014 ± 0.016	0.0055 ± 0.011	-0.0105 ± 0.0064	0.001 ± 0.0085	0.008 ± 0.021	0 ± 0.011	-0.0165 ± 0.005	-0.0165 ± 0.0078	-0.013 ± 0.014	-0.004 ± 0.0014	0.008 ± 0.03	0.0135 ± 0.037	-0.005 ± 0.0028	0.008 ± 0.0071	0.016 ± 0.016	0.019 ± 0.0085	0.009 ± 0.018	0.009 ± 0.0071
